Key:
Test in all cases: NCI human tumor cell panel
Type in all cases: cell-based
[1] = system: 786-0; conditions: 786-0, read-out: Log10 LC50 (converted)
[2] = system: BT-549; conditions: BT-549, read-out: Log10 LC50 (converted)
[3] = system: CCRF-CEM; conditions: read-out: Log10 LC50 (converted)
[4] = system: DU-145; conditions: DU-145, read-out: Log10 LC50 (converted)
[5] = system: HCC-2998; conditions: HCC 2998, read-out: Log10 LC50 (converted)
[6] = system: HCT-116; conditions: HCT-116, read-out: Log10 LC50 (converted)
[7] = system: HCT-15; conditions: HCT-15, read-out: Log10 LC50 (converted)
[8] = system: HOP-92; conditions: HOP-92, read-out: Log10 LC50 (converted)
[9] = system: HS 578T; conditions: read-out: Log10 LC50 (converted)
[10] = system: IGROV1; conditions: IGROV-1, read-out: Log10 LC50 (converted)
[11] = system: K-562; conditions: K562, read-out: Log10 LC50 (converted)
[12] = system: KM12; conditions: KM12, read-out: Log10 LC50 (converted)
[13] = system: LOX IMVI; conditions: read-out: Log10 LC50 (converted)
[14] = system: M14; conditions: M14, read-out: Log10 LC50 (converted)
[15] = system: MDA-N; conditions: read-out: Log10 LC50 (converted)
[16] = system: NCI-H460; conditions: NCI-H460, read-out: Log10 LC50 (converted)
[17] = system: OVCAR-5; conditions: OVCAR-5, read-out: Log10 LC50 (converted)
[18] = system: RPMI-8226; conditions: RPMI-8226, read-out: Log10 LC50 (converted)
[19] = system: SK-MEL-2; conditions: SK-MEL-2, read-out: Log10 LC50 (converted)
[20] = system: SN12C; conditions: read-out: Log10 LC50 (converted)
[21] = system: SR; conditions: read-out: Log10 LC50 (converted)
[22] = system: UACC-62; conditions: UACC-62, read-out: Log10 LC50 (converted)

| SMILES | CC50 [1] [µM] | CC50 [2] [µM] | CC50 [3] [µM] | CC50 [4] [µM] | CC50 [5] [µM] | CC50 [6] [µM] | CC50 [7] [µM] | CC50 [8] [µM] | CC50 [9] [µM] | CC50 [10] [µM] | LC50 [11] [µM] | CC50 [12] [µM] | CC50 [13] [µM] | CC50 [14] [µM] | LC50 (50% lethal concentration) [15] [µM] | LC50 (concentration killing 50% of cells) [16] [µM] | CC50 [17] [µM] | CC50 [18] [µM] | CC50 [19] [µM] | CC50 [20] [µM] | other results |
| --- | --- | --- | --- | --- | --- | --- | --- | --- | --- | --- | --- | --- | --- | --- | --- | --- | --- | --- | --- | --- | --- |
| O=Cc1ccc(-c2ccc(-c3ccc(C=O)[se]3)s2)[se]1 | > 100 | > 100 | > 100 | > 100 | > 100 | > 100 | > 100 | > 100 | > 100 | > 100 | > 100 | > 100 | > 100 | > 100 | > 100 | > 100 | 3.55 | > 100 | > 100 | > 100 | CC50 [21]: > 100 µM; CC50 [22]: > 100 µM |
| O=Cc1ccc(-c2ccc(-c3ccc(C=O)[se]3)[se]2)[se]1 | > 100 | > 100 | > 100 | > 100 | > 100 | > 100 | > 100 | > 100 | > 100 | 74.1 | > 100 | > 100 | > 100 | > 100 | > 100 | > 100 | > 100 | > 100 | > 100 | > 100 | CC50 [21]: > 100 µM; CC50 [22]: > 100 µM |
| O=Cc1ccc(-c2ccc(-c3cccs3)[se]2)s1 | > 100 | > 100 | > 100 | > 100 | 20.9 | > 100 | > 100 | > 100 | > 100 | > 100 | > 100 | > 100 | > 100 | > 100 | > 100 | > 100 | > 100 | > 100 | > 100 | > 100 | CC50 [21]: > 100 µM; CC50 [22]: 85.1 µM |
| O=Cc1ccc(-c2ccc(-c3ccc(C=O)s3)[se]2)s1 | > 100 | > 100 | > 100 | > 100 | 74.1 | > 100 | > 100 | > 100 | > 100 | > 100 | > 100 | > 100 | > 100 | > 100 | > 100 | > 100 | > 100 | > 100 | > 100 | > 100 | CC50 [21]: > 100 µM; CC50 [22]: > 100 µM |

Reference: patent publication EP1021178B1, “SELENOPHENE ANTI-TUMOR AGENTS” (Purdue Research Foundation, priority 1996, dated 1997)
